Test results: patent US20140065655A1, “SCREENING METHOD FOR SUBSTANCE ACTING ON MAINTENANCE OF EPITHELIAL PROPERTIES OF CELL” (SCIVAX CORPORATION, priority 2012, published 2014)

Assays:
[1] = system: human-lung-cancer-cells derived strain A549; experiment: Effect of epithelial-mesenchymal transition inhibitor on morphology and hypoxic area (LOX-1 red signal) of spheroids on NanoCulture plate; assay type: cell-based
Description: 5-%-FBS-containing DMEM culture medium and 1.0-%-Matrigel (registered trademark) containing DMEM culture medium were added in respective wells of a cell culture vessels NanoCulture (registered trademark) plate (made by SCIVAX corporation, 384-well plate, material of concavity-convexity structure surface=polymethylpentene (TPX made by MITSUI Chemical Co., Ltd.), planar shape of concavo-convex structure=square, width between unit structures (line width)=700 nm, minimum internal diameter of unit structure=3 μm, and depth=1 μm) by 25 μl, and were subjected to centrifugal force for five minutes at 1000×g.
A cell suspension having human-lung-cancer-cells derived strain A549 adjusted to 13.5×10^4 cells/ml by a 5-%-FBS-containing DMEM culture medium was added to each well of the above-explained plate by 25 μl (the number of cells was 3.4×10^3 cells/well, and the final concentration of the culture medium additive was 5% FBS and 0.5% Matrigel).
At the third day of the culturing, TGF-β2 (made by R&D systems corporation, 302-B2-002) and TNF-α (made by R&D systems corporation, 210-TA-010) which were epithelial-mesenchymal transition inducers were added to each well in such a way that a final concentration became 5 ng/ml and 10 ng/ml, respectively. While at the same time, SB431542 (made by Miltenyi Biotec corporation, 130-095-561) that was an inhibitor of TGF-β2 was added in such a way that a final concentration became 10 μM.
Dimethyl-sulfoxide was added to all wells where no SB431542 was added in such a way that a final concentration became 0.1%.
At the fifth day of the culturing, a hypoxic area detection reagent LOX-1 (made by SCIVAX corporation) was added to each well in such a way that a final concentration became 2 μM. LOX-1 is a reagent that contains iridium complex which emits red phosphorescence.
An observation through a fluorescent microscope was carried out at the sixth day of the culturing.

E-cadherin = experiment: qRT-PCR expression level of E-cadherin gene (epithelial marker) in A549 spheroids; assay type: cell-based, human; conditions: A549, SB431542 10 μM with TGF-β2 5 ng/ml and TNF-α 10 ng/ml, sixth day, corrected by TBP (FIG. 6)
Description: (§1) In order to verify whether or not a change in the morphology of the spheroid confirmed in the second example reflects an epithelial-mesenchymal transition and an epithelial-mesenchymal transition inhibition, a result of measuring an expression level of a gene that is known as an epithelial or mesenchymal marker through qRT-PCR is shown in FIGS. 6 to 9. The processes from (1) pre-incubation to (3) addition of the epithelial-mesenchymal transition inducer and inhibitor were carried out likewise the second example. Next, at the sixth day of the culturing, all RNAs were extracted from each sample using RNeasy Plus Mini Kit (made by QIAGEN corporation), and such RNAs having undergone reverse transcription using PrimeScript RT reagent Kit (made by TAKARABIO Inc.) were used for qRT-PCR. SYBER Premix Ex Tagll (made by TAKARABIO Inc.) was used for PCR. Moreover, Thermal Cycler Dice (made by TAKARABIO Inc.) was used for a reaction and a detection. Note that data is corrected by the expression level of internal standard gene (TBP), and is shown as a relative value when the expression level of the control is taken as 1.

N-cadherin = experiment: qRT-PCR expression level of N-cadherin gene (mesenchymal marker) in A549 spheroids; assay type: cell-based, human; conditions: A549, SB431542 10 μM with TGF-β2 5 ng/ml and TNF-α 10 ng/ml, sixth day, corrected by TBP (FIG. 7)
Description: as §1

[2] = A549, SB431542 10 μM with TGF-β2 5 ng/ml and TNF-α 10 ng/ml, LOX-1 2 μM, sixth day

NC(=O)c1ccc(-c2nc(-c3ccc4c(c3)OCO4)c(-c3ccccn3)[nH]2)cc1 [SB431542]
morphology of spheroids (bright field image) ([1]; A549, SB431542 10 μM with TGF-β2 5 ng/ml and TNF-α 10 ng/ml added at third day, observed sixth day, compared with well where no inhibitor was added): the collapse of spheroids were suppressed and the contours of the spheroids had a small concavity and convexity | red intensity and red area (hypoxic area, LOX-1, fluorescent field image) [1, 2]: the red intensity was high and the red area was large | red signal (quantified, FIG. 5) relative to the well where no inhibitor was added [1, 2]: about twice | expression level of E-cadherin (E-cadherin): ~60 % of the control | expression level of N-cadherin (N-cadherin): decreased to substantially same level as that of the control
